# In article PMC9144145, “Preclinical Safety and Pharmacokinetics of Heat Stable Oxytocin in Sublingual Fast-Dissolving Tablet Formulation” (Pharmaceutics, 2022):
# Experiment: GLP toxicokinetic study in anesthetized rabbits, plasma oxytocin by LC-MS/MS
# Assay type: in vivo
# Conditions: rabbit, IM, 10 IU
# Procedure: The toxicokinetic study in rabbits (Table 2) was conducted at a contract animal facility (Noble Life Sciences, Sykesville, MD, USA) under approval from Noble Life Sciences IACUC (approval code: NLS-589, date: 13 May 2020) and in compliance with the U.S. Food and Drug Administration Good Laboratory Practice Regulations for Nonclinical Laboratory Studies (21 CFR Part 58).
# For SL placement of fast dissolving tablets, the rabbit was anesthetized and positioned on a flat table, with the lower jaw strongly supported in a horizontal level on the table. Using rounded tip stainless tweezers, the rabbit’s tongue was carefully raised, and the sublingual tablet was placed beneath the tongue (see Figure 1). Anesthesia was maintained for 3 h after drug administration to keep the tablet in sublingual position and prevent entering the gastrointestinal tract.
# Animals were not fasted prior to blood collection. Blood was collected at the time points of 0 min (pre-dose) and 5, 10, 15, 20, 30, 60, 120, and 180 min post-dose and at euthanasia only the first four animals for SL group. All animals were anesthetized pre-dose, prior to dosing. All animals were anesthetized with ketamine (35–50 mg/kg) and xylazine (3–5 mg/kg) via a subcutaneous or intramuscular (IM) route followed by maintenance anesthesia with additional half doses if needed or via inhaled isoflurane. At the selected time points, whole blood was collected aseptically from the auricular artery and dispensed into the appropriate collection tubes in any order: (1) K3 EDTA for hematology determinations; (2) 0.129 M, 3.8% sodium citrate for coagulation analyses (plasma); (3) serum separator tube for serum chemistry and C-reactive protein; and (4) aprotinin-spiked (K2EDTA) tubes for plasma oxytocin determinations. Tubes containing hematology specimens were placed at room temperature on a rocker for at least 30 min prior to shipment. Tubes containing whole blood for serum isolation were maintained for at least 30 min and no more than 4 h at room temperature before being processed to serum. Tubes containing aprotinin-spiked (K2EDTA) specimens for oxytocin determinations were maintained on wet ice or cold packs before use and after collection. They were also maintained on a rocker for at least 30 min prior to processing.
# Blood samples for oxytocin determination were collected into the Aprotinin spiked (K2EDTA) vacutainer tubes and processed for collection of plasma. The samples were processed by centrifuging for approximately 15 min at approximately 3000 rpm and approximately 4 °C; they were aliquoted into cryovials without anticoagulant and were immediately placed on dry ice. At termination, blood was collected from the SL group for serum chemistry, C-reactive protein, hematology, and coagulation. Blood collected for coagulation analyses was collected into tubes containing 3.8% sodium citrate and was processed for plasma per the Noble protocol. All serum and plasma samples were processed aseptically.
# Each plasma sample was aliquoted into two vials of an approximately equal volume. All the collected plasma was analyzed for oxytocin levels by the LC-MS/MS method.
# The bioanalytical method for quantification of oxytocin in rabbit plasma (K2EDTA) was validated following the FDA guidelines for a bioanalytical method validation at NorthEast BioAnalytical Laboratory, LLC (NEBA) (Hamden, CT, USA), via reverse phase liquid chromatography separation (Column: Zorbax SB C18 (Agilent, Santa Clara, CA, USA) 3.5 μm 150 × 4.6 mm, Security/Guard Cartridge Gemini C18 4 × 2.0 mm) and detection by tandem mass spectrometry (LC/MS/MS) using Sciex API-5000 Mass Spectrometer. Analysis of Oxytocin was performed using stable label internal standard, Oxytocin-d5. Oxytocin was received as an acetate salt and Oxytocin-d5 was received as Trifluoroacetate salt.
# For quantitation, the LC/MS/MS data were acquired using Analyst® v1.6 software (Sciex, Framingham, MA, USA). […]
smiles,measurement,setting,value
"CC[C@H](C)[C@@H]1NC(=O)[C@H](Cc2ccc(O)cc2)NC(=O)[C@@H](N)CSSC[C@@H](C(=O)N2CCC[C@H]2C(=O)N[C@@H](CC(C)C)C(=O)NCC(N)=O)NC(=O)[C@H](CC(N)=O)NC(=O)[C@H](CCC(N)=O)NC1=O [Intramuscular (Control), Oxytocin]",AUC(0-t),"plasma, linear trapezoidal, mean, n = 8",4.82 ± 0.728 ng·h/mL
same,half-life,"plasma, mean, n = 8",1.02 ± 0.336 h
same,time to rapid increase in plasma oxytocin concentration,,≤ 5 min
same,Tlast,"mean, n = 8",2.88 ± 0.354 h
same,Tmax,"plasma, LC-MS/MS, mean ± SD, n = 8, SD",1.13 ± 0.916 h
same,Cmax,"plasma, LC-MS/MS, mean, n = 8",2.66 ± 0.567 ng/mL
